Source: publication PMC11864979, “First-in-class ultralong-target-residence-time p38α inhibitors as a mitosis-targeted therapy for colorectal cancer” (Nature Cancer, 2025)
Several values for one entry are separate records, joined by “and”; a condition that tells them apart may be missing. Identical values can stand only once.

Experiments:
HCT-15 = assay: cell viability in human CRC cell line HCT-15; type: cell-based; conditions: for HCT-15 Cell viability (%): 4 d
Experimental: To generate KAP^2D cells, KAP organoids were isolated from Matrigel, fragmented by mechanical dissociation and plated without any extracellular matrix on common cell culture dishes. Phoenix-Eco packaging cells (CRL-3214), HCT-15 (CCL-225), HCT 116 (CCL-247), COLO 205 (CCL-222), LS 174T (CL-188), RKO (CRL-2577) and HT-29 (HTB-38) were obtained from the American Type Culture Collection. The cells were cultured at 37 °C and 7% CO2 with RPMI (KAP^2D cells) or DMEM (other cell lines), supplemented with 10% FBS and penicillin–streptomycin. KAP^2D cells were authenticated using PCR (Kras locus and Trp53 locus). Phoenix-Eco packaging cells and HCT-15, HCT 116, COLO 205, LS 174T, RKO and HT-29 cells were authenticated by the provider using short tandem repeat profiling. No commonly misidentified cell lines were used. Mycoplasma contamination was excluded by a PCR-based analysis.
(§1) For in vitro treatment studies, organoids were mechanically dissociated and digested using TrypLE supplemented with 100 µg ml^−1 DNaseI and 10.5 µM Y-27632 dihydrochloride (Invitrogen) at 37 °C. A total of 1,000–2,000 single cells were plated per well in white 96-well plates (Greiner) in culture medium containing 10% GFR Matrigel or Cultrex BME. The treatment with doxycycline (5 µg ml^−1), pharmacological inhibitors or corresponding volumes of DMSO was started 24 h after plating. Doxycycline was obtained from Sigma-Aldrich. […] Cell viability was measured by means of CellTiter-Glo 3D or CellTiter-Glo 2.0 reagent (Promega) according to the manufacturers’ instructions and the Infinite M Plex reader (Tecan, i-control version 3.9.1 software). Results were normalized to vehicle (DMSO) or to shNC. For cell-doubling assays, the cell number was quantified at the corresponding time points using Guava EasyCyte flow cytometer (Luminex, CytoSoft v5.2 software).

PDO10 = assay: cell viability in patient-derived CRC organoids PDO10; type: cell-based, human
Experimental: as §1

PDO14 = assay: cell viability in patient-derived CRC organoids PDO14; type: cell-based, human
Experimental: as §1

PDO6 = assay: cell viability in patient-derived CRC organoids PDO6; type: cell-based, human
Experimental: as §1

LS 174T = assay: cell viability in human CRC cell line LS 174T; type: cell-based; conditions: for LS 174T Cell viability (%): 4 d
Experimental: The cells were cultured at 37 °C and 7% CO2 with RPMI (KAP^2D cells) or DMEM (other cell lines), supplemented with 10% FBS and penicillin–streptomycin. […] No commonly misidentified cell lines were used. Mycoplasma contamination was excluded by a PCR-based analysis.

KAP^2D cells = assay: quantification of viable KAP^2D cells over time (cell-doubling assay); type: cell-based, mouse; conditions: Fig. 4i
Experimental: The treatment with doxycycline (5 µg ml^−1), pharmacological inhibitors or corresponding volumes of DMSO was started 24 h after plating. […] Cell viability was measured by means of CellTiter-Glo 3D or CellTiter-Glo 2.0 reagent (Promega) according to the manufacturers’ instructions and the Infinite M Plex reader (Tecan, i-control version 3.9.1 software). Results were normalized to vehicle (DMSO) or to shNC. For cell-doubling assays, the cell number was quantified at the corresponding time points using Guava EasyCyte flow cytometer (Luminex, CytoSoft v5.2 software).

## O=C1c2ccc(Nc3ccc(F)cc3F)cc2CCc2ccc(OC[C@H](O)CO)cc21 [SKL, skepinone-L, reference compound]
HCT-15; 0.3704 µM
  HCT-15 Cell viability (%): 89.64% and 87.65% and 88.79% and 84.50% and 86.12%
HCT-15; 1.1111 µM
  HCT-15 Cell viability (%): 86.80% and 87.17% and 87.53% and 83.96% and 84.00%
HCT-15; 3.3333 µM
  HCT-15 Cell viability (%): 78.50% and 80.56% and 79.62% and 74.15% and 75.97%
HCT-15; 10.0000 µM
  HCT-15 Cell viability (%): 48.74% and 48.84% and 48.80% and 46.08% and 47.66%
HCT-15; Homo sapiens, HCT-15, 96 h, read-out: HCT-15 Cell viability (%), 0.0137 µM, 4 d
  viability at 0.0137 µM: 96.7%
HCT-15; Homo sapiens, HCT-15, 96 h, read-out: HCT-15 Cell viability (%), 0.0412 µM, 4 d
  viability at 0.0412 µM: 83.9%
HCT-15; Homo sapiens, HCT-15, 96 h, read-out: HCT-15 Cell viability (%), 0.1235 µM, 4 d
  viability at 0.1235 µM: 87.5%
HCT-15; Homo sapiens, HCT-15, 96 h, read-out: HCT-15 Cell viability (%), 0.3704 µM, 4 d
  viability at 0.3704 µM: 93.1%
HCT-15; Homo sapiens, HCT-15, 96 h, read-out: HCT-15 Cell viability (%), 1.1111 µM, 4 d
  viability at 1.1111 µM: 93.5%
HCT-15; Homo sapiens, HCT-15, 96 h, read-out: HCT-15 Cell viability (%), 3.3333 µM, 4 d
  viability at 3.3333 µM: 76.4%
HCT-15; Homo sapiens, HCT-15, 96 h, read-out: HCT-15 Cell viability (%), 10.0000 µM, 4 d
  viability at 10 µM: 49.5%
PDO10; Homo sapiens, 96 h, read-out: Cell viability (%), PDO10, 0.5 µM, 4 d
  viability at 0.5 µM: 90.5%
PDO10; Homo sapiens, 96 h, read-out: Cell viability (%), PDO10, 1 µM, 4 days
  viability at 1 µM: 94.7%
PDO10; PDO10, 0.5 µM, 4 d, 0.5 µM
  Cell viability (%): 87.26% and 98.21%
PDO10; PDO10, 1 µM, 4 days, 1 µM
  Cell viability (%): 92.67% and 102.90%
PDO14; Homo sapiens, 96 h, read-out: Cell viability (%), PDO14, 0.5 µM, 4 d
  viability at 0.5 µM: 104%
PDO14; Homo sapiens, 96 h, read-out: Cell viability (%), PDO14, 1 µM, 4 days
  viability at 1 µM: 100%
PDO14; PDO14, 0.5 µM, 4 d, 0.5 µM
  Cell viability (%): 101.08% and 101.64%
PDO14; PDO14, 1 µM, 4 days, 1 µM
  Cell viability (%): 109.63% and 109.64%
PDO6; Homo sapiens, 96 h, read-out: Cell viability (%), PDO6, 1 µM, 4 days
  viability at 1 µM: 112%
PDO6; PDO6, 0.5 µM, 4 d, 0.5 µM
  Cell viability (%): 101.15% and 118.77% and 80.46%
PDO6; PDO6, 1 µM, 4 days, 1 µM
  Cell viability (%): 110.32% and 93.07%
LS 174T; 0.0137 µM
  LS 174T Cell viability (%): 99.40% and 93.05% and 101.28% and 92.22%
LS 174T; 0.0412 µM
  LS 174T Cell viability (%): 92.09% and 86.77% and 91.37% and 88.68% and 85.53%
LS 174T; 0.1235 µM
  LS 174T Cell viability (%): 82.00% and 78.88% and 87.71% and 84.96%
LS 174T; 0.3704 µM
  LS 174T Cell viability (%): 80.28% and 77.65% and 86.62% and 87.42% and 86.17%
LS 174T; 1.1111 µM
  LS 174T Cell viability (%): 91.92% and 90.66% and 93.51% and 91.38% and 95.21%
LS 174T; 3.3333 µM
  LS 174T Cell viability (%): 99.97% and 97.60% and 100.77% and 96.22% and 98.37%
LS 174T; 10.0000 µM
  LS 174T Cell viability (%): 102.64% and 93.49% and 96.83% and 90.78% and 93.45%
LS 174T; Homo sapiens, LS174T, 96 h, read-out: LS 174T Cell viability (%), 0.0137 µM, 4 d
  viability at 0.0137 µM: 100%
LS 174T; Homo sapiens, LS174T, 96 h, read-out: LS 174T Cell viability (%), 0.0412 µM, 4 d
  viability at 0.0412 µM: 94.4%
LS 174T; Homo sapiens, LS174T, 96 h, read-out: LS 174T Cell viability (%), 0.1235 µM, 4 d
  viability at 0.1235 µM: 92.9%
LS 174T; Homo sapiens, LS174T, 96 h, read-out: LS 174T Cell viability (%), 0.3704 µM, 4 d
  viability at 0.3704 µM: 89%
LS 174T; Homo sapiens, LS174T, 96 h, read-out: LS 174T Cell viability (%), 1.1111 µM, 4 d
  viability at 1.1111 µM: 102%
LS 174T; Homo sapiens, LS174T, 96 h, read-out: LS 174T Cell viability (%), 3.3333 µM, 4 d
  viability at 3.3333 µM: 107%
LS 174T; Homo sapiens, LS174T, 96 h, read-out: LS 174T Cell viability (%), 10.0000 µM, 4 d
  viability at 10 µM: 98.7%
KAP^2D cells; 0 h of treatment
  Number of cells: 41307.05 and 44263.95 and 43595.63 and 48502.24 and 40389.64
KAP^2D cells; 12 h of treatment
  Number of cells: 65088.74 and 77948.45 and 80933.57 and 91775.55 and 95176.94 and 93698.43
KAP^2D cells; 24 h of treatment
  Number of cells: 83699.30 and 94240.25 and 95144.88 and 126855.10 and 130387.80 and 122006.30
KAP^2D cells; 36 h of treatment
  Number of cells: 151900.95 and 118999.57 and 148091.83 and 233974.50 and 200549.50 and 179469.60
KAP^2D cells; 48 h of treatment
  Number of cells: 325693.88 and 295126.41 and 320338.47 and 303856.40 and 287208.10 and 301764.60
KAP^2D cells; 60 h of treatment
  Number of cells: 579787.04 and 516216.51 and 567999.66 and 537469.80 and 457898.40 and 474698.40
